Measured values as given in ChEMBL document CHEMBL5113422, “Structure-based rational design enables efficient discovery of a new selective and potent AKT PROTAC degrader” (Eur J Med Chem, 2022).
pIC50: −log10 of the molar value. Activity calls are given as the source filed them. The calls are words filed in the database; no cut-off is given here.

Assays:
JeKo-1 [1] = test: Antiproliferative activity against human Jeko-1 cells assessed as cell viability measured after 7 days by CCK-8 assay; type: functional, cell-based; conditions: JeKo-1, 168 h
[2] = Antiproliferative activity against human Mino cells assessed as cell viability measured after 7 days by CCK-8 assay; type: functional, cell-based; conditions: 168 h
MM1.S [3] = test: Antiproliferative activity against human MM1.S cells assessed as cell viability measured after 7 days by CCK-8 assay; type: functional, cell-based; conditions: 168 h
JeKo-1 [4] = test: Antiproliferative activity against human Jeko-1 cells expressing CRBN-knockout assessed as cell viability measured after 7 days by CCK-8 assay; type: functional, cell-based; conditions: JeKo-1, 168 h
MM1.S [5] = test: Antiproliferative activity against human MM1.S cells assessed as cell viability measured after 3 days by CCK-8 assay; type: functional, cell-based; conditions: 72 h
Protein cereblon/AKT [6] = target: T1, Protein cereblon/AKT (Homo sapiens, UniProt P31751+Q9Y243+P31749+Q96SW2); test: Protac activity at CRBN/Akt in human Jeko-1 cells assessed as Akt degradation at 250 nM after 24 hrs by immunoblot analysis relative to control; type: cell-based
T1 sequence (P31751 whole entry): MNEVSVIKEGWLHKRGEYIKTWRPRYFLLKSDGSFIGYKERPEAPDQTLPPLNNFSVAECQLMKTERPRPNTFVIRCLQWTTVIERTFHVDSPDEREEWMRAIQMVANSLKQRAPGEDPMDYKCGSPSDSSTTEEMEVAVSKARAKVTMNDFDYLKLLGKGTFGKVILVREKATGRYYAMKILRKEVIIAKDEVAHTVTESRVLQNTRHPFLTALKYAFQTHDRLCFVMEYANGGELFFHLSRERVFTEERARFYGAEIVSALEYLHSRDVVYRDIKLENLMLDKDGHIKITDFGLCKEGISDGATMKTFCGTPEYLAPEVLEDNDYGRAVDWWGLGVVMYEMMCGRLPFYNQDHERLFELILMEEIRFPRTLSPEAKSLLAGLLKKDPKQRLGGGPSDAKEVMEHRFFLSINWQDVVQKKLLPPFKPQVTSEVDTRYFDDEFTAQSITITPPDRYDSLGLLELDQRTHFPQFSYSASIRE
T1 sequence (Q9Y243 whole entry): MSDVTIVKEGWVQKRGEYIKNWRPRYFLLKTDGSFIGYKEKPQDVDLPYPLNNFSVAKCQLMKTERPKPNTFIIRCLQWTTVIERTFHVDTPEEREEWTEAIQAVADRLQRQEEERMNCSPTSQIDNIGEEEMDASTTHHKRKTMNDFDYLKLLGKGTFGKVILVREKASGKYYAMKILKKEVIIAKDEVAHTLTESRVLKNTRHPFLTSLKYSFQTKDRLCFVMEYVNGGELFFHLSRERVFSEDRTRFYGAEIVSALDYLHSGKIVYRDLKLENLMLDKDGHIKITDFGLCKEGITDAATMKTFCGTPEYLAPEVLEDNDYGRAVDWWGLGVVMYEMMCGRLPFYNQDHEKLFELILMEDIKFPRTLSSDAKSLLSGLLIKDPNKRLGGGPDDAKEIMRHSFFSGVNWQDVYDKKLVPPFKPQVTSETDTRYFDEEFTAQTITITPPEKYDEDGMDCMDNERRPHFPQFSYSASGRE
T1 sequence (P31749 whole entry): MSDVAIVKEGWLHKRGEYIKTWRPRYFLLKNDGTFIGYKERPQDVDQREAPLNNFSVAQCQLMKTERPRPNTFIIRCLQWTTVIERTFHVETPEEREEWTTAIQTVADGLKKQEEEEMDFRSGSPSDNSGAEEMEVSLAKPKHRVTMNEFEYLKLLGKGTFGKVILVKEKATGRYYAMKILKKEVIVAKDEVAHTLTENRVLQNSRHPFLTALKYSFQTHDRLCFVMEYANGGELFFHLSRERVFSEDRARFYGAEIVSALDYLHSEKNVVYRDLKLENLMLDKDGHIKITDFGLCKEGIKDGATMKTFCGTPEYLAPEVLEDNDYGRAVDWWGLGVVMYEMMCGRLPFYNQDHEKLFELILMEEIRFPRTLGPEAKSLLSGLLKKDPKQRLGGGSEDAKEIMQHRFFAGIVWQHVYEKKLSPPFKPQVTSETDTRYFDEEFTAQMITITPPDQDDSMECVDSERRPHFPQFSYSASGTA
T1 sequence (Q96SW2 whole entry): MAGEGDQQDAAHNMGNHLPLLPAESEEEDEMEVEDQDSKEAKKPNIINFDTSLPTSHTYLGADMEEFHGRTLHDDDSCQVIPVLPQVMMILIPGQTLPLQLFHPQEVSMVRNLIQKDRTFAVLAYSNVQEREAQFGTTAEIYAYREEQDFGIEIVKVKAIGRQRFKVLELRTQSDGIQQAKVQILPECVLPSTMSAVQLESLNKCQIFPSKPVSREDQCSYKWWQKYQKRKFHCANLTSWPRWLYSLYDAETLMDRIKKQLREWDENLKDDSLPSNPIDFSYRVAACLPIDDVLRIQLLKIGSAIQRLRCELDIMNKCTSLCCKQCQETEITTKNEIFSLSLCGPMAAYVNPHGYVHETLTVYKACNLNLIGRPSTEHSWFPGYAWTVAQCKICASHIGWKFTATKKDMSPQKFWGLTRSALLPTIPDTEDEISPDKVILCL

[7] = target: Protein cereblon/RAC-alpha serine/threonine-protein kinase (Homo sapiens) (UniProt P31749+Q96SW2); test: Protac activity at CRBN/Akt1 in human Jeko-1 cells assessed as Akt1 degradation at 500 nM after 12 hrs by immunoblot analysis; type: cell-based
Protein cereblon/RAC-alpha serine/threonine-protein kinase (Homo sapiens), sequence (P31749 whole entry, looked up): as the sequence (P31749 whole entry) above
Protein cereblon/RAC-alpha serine/threonine-protein kinase (Homo sapiens), sequence (Q96SW2 whole entry, looked up): as the sequence (Q96SW2 whole entry) above

JeKo-1 [8] = test: Antiproliferative activity against human Jeko-1 cells assessed as cell viability measured after 3 days cotreated with Ibrutinib by CCK-8 assay; type: functional, cell-based; conditions: time 3.0 day
[9] = target: Protein cereblon/RAC-beta serine/threonine-protein kinase (Homo sapiens) (UniProt P31751+Q96SW2); test: Protac activity at CRBN/Akt2 in human Jeko-1 cells assessed as Akt2 degradation at 500 nM after 12 hrs by immunoblot analysis; type: cell-based
Protein cereblon/RAC-beta serine/threonine-protein kinase (Homo sapiens), sequence (P31751 whole entry, looked up): as the sequence (P31751 whole entry) above
Protein cereblon/RAC-beta serine/threonine-protein kinase (Homo sapiens), sequence (Q96SW2 whole entry, looked up): as the sequence (Q96SW2 whole entry) above

Protein cereblon/AKT [10] = target: T1, Protein cereblon/AKT; test: Protac activity at CRBN/Akt in human Jeko-1 cells assessed as Akt degradation at 250 nM after 2 hrs by immunoblot analysis; type: cell-based
Protein cereblon/AKT [11] = target: T1, Protein cereblon/AKT; test: Protac activity at CRBN/Akt in human Jeko-1 cells assessed as decrease in phosphorylated GSK3beta level after 24 hrs by immunoblot analysis; type: cell-based; conditions: dose 10-1000 nM
Protein cereblon/AKT [12] = target: T1, Protein cereblon/AKT; test: Protac activity at CRBN/Akt in human Jeko-1 cells assessed as Akt degradation after 24 hrs by immunoblot analysis relative to control; type: cell-based
Protein cereblon/AKT [13] = target: T1, Protein cereblon/AKT; test: Protac activity at CRBN/Akt in human Jeko-1 cells assessed as decrease in Myc level after 24 hrs cotreated with Ibrutinib by immunoblot analysis; type: cell-based
[14] = target: Protein cereblon/Zinc finger protein Aiolos (Homo sapiens) (UniProt Q96SW2+Q9UKT9); test: Protac activity at CRBN/IKZF3 in human Jeko-1 cells assessed as IKZF3 degradation at 500 nM after 12 hrs by immunoblot analysis; type: cell-based
Protein cereblon/Zinc finger protein Aiolos (Homo sapiens), sequence (Q96SW2 whole entry, looked up): as the sequence (Q96SW2 whole entry) above
Protein cereblon/Zinc finger protein Aiolos (Homo sapiens), sequence (Q9UKT9 whole entry, looked up): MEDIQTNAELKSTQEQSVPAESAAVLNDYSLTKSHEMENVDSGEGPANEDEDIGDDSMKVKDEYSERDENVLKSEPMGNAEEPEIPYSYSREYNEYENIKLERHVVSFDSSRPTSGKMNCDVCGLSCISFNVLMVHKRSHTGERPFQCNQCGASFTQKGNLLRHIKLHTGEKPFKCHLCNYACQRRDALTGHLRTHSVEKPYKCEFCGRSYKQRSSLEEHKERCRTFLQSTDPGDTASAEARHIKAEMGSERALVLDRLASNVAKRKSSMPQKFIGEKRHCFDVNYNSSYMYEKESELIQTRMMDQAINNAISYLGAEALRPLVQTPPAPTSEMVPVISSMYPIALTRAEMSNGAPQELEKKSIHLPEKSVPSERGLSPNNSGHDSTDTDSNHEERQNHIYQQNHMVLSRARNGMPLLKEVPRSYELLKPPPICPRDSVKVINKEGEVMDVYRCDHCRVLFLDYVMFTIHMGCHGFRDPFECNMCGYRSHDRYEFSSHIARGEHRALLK

Row | SMILES | pIC50 (MM1.S [3]) | pIC50 (MM1.S [5]) | Activity (Protein cereblon/AKT [6]) [%] | Activity [7] | Activity [9] | Activity (Protein cereblon/AKT [10]) | Activity (Protein cereblon/AKT [11]) | DC50 (Protein cereblon/AKT [12]) [µM] | Activity (Protein cereblon/AKT [13]) | Activity [14] | pIC50 (JeKo-1 [1]) | pIC50 [2] | pIC50 (JeKo-1 [4]) | Activity (JeKo-1 [8])
1 | CNC(=O)C[C@@H]1C[C@@H](c2cccc(F)c2)[C@H](NC(=O)c2ccc(-c3c(Cl)cnn3C)s2)CN1 | 7.14 | 7.14 | – | – | – | – | – | – | – | – | 6.30 | 5.47 | 6.46 | –
2 | Cn1ncc(Cl)c1-c1ccc(C(=O)N[C@@H]2CN[C@H](CC(=O)Nc3ccc(OCCOCCOCCNc4cccc5c4C(=O)N(C4CCC(=O)NC4=O)C5=O)cc3)C[C@H]2c2cccc(F)c2)s1 (stereo not given in full) | – | – | 95 | – | – | – | – | – | – | – | – | – | – | –

The remaining compounds from weak to strong by pIC50 (MM1.S [3]), led by results:

Row | pIC50 (MM1.S [3]) | pIC50 (MM1.S [5]) | Activity (Protein cereblon/AKT [6]) [%] | Activity [7] | Activity [9] | Activity (Protein cereblon/AKT [10]) | Activity (Protein cereblon/AKT [11]) | DC50 (Protein cereblon/AKT [12]) [µM] | Activity (Protein cereblon/AKT [13]) | Activity [14] | SMILES | pIC50 (JeKo-1 [1]) | pIC50 [2] | pIC50 (JeKo-1 [4]) | Activity (JeKo-1 [8])
3 | 7.15 | < 4.70 | – | – | – | – | – | – | – | – | Nc1cccc2c1CN(C1CCC(=O)NC1=O)C2=O (stereo not given) [LENALIDOMIDE] | < 4.70 | < 4.70 | < 4.70 | –
4 | 7.39 | 5.32 | – | – | – | – | – | – | – | – | COCCOCCOCCNc1cccc2c1C(=O)N(C1CCC(=O)NC1=O)C2=O (stereo not given) | < 4.70 | < 4.70 | < 4.70 | –
5 | 7.63 | 7.10 | 95 | Active | Active | Active | Active | 0.028 | Active | Active | Cn1ncc(Cl)c1-c1cc(C(=O)N[C@@H]2CN[C@H](CC(=O)Nc3ccc(OCCOCCOCCNc4cccc5c4C(=O)N(C4CCC(=O)NC4=O)C5=O)cc3)C[C@H]2c2cccc(F)c2)oc1Cl (stereo not given in full) | 6.69 | 5.64 | 5.64 | Active
6 | 7.66 | 6.08 | – | – | – | – | – | – | – | – | Nc1cccc2c1C(=O)N(C1CCC(=O)NC1=O)C2=O (stereo not given) [POMALIDOMIDE] | 5.58 | 4.78 | < 4.70 | –
